Format in all cases: cell-based, human
For series [1], the system named is SW620-src colorectal cancer cells. In words: Cell viability assay (MTT). The note with it: 72h, varying concentrations, much higher than those used in biological activity assays, Fig. 13. The procedure:
(§1) SW620-src colorectal cancer cells were a kind gift of Dr. Serge Roche group. These cells have been stably transfected with human Src as described in Aponte, E., et al. (2021). "Regulation of Src tumor activity by its N-terminal intrinsically disordered region." Oncogene, 41: 960-970.. SW620-src colorectal cancer cells were grown in DMEM supplemented with 10% FBS (Gibco 10500-064), 1% GlutaMAX (Gibco 35050038) 1% P/S (Corning 30-002-CI). Cell lines were grown at 37°C with an atmosphere of 95% air, 5% CO2. All the reagents used during cell culture procedures were heated to 37°C in a water bath before its use. Before each assay, the absence of mycoplasma was tested according to a previously described protocol (Molla Kazemiha, V., et al. (2009). "PCR-based detection and eradication of mycoplasmal infections from various mammalian cell lines: a local experience." Cytotechnology 61(3): 117-124).
Cell viability was measured by MTT assay as described before (Kamiloglu, S., et al. (2020). "Guidelines for cell viability assays." Food Frontiers 1(3): 332-349).. […]
SW620-src cells were seeded into 96-well plates containing 100 µL of the growth medium at a density of 10000 cells/well for and cultured for one day. […] Afterwards, the plates were read under 570/690 nm wavelengths by plate reader (Synergy HTX, Biotek).

For series [2] the test system is unchanged. As to the kind of experiment: Soft agar colony formation assay. As to conditions: Src transformed SW620 colorectal cancer cells, 5 µM of Drugs, 3 weeks, colonies with >50 cells counted; Fig. 11. The procedure: as §1
Cells were plated at density of 10,000 per well in 24-well plates in 0.3% soft agar on top of a base layer of 0.7% agar. The cells were treated with 5 µM of Drugs, and the plates were incubated for 3 weeks, replacing the media every week. […] These experiments were repeated twice with 4 replicates per group, and only colonies with >50 cells were counted.

For series [3] the test system is unchanged. As to the kind of experiment: Wound healing assay (scratch, cell migration). The note with it: Src transformed SW620 cells, 24h after scratch; Fig. 12. The procedure:
as §1, with “Before each assay, the absence of mycoplasma was tested according to a previously described protocol (Molla Kazemiha, V., et al. (2009). "PCR-based detection and eradication of mycoplasmal infections from various mammalian cell lines: a local experience." Cytotechnology 61(3): 117-124).” left out
Cells were plated into 24-well plate at density of 500,000 cells/well and were cultured until they reach a 100% confluence. […] Each well was photographed in the same site to quantify cell migration after 24 hours. […] The obtained images were analyzed by Imaged software (Schindelin, J., et al. (2012). "Fiji: an open-source platform for biological-image analysis." Nature Methods 9(7): 676-682) using the MRI wound healing tool plugin (Suarez-Arnedo, A., et al. (2020). "An image J plugin for the high throughput image analysis of in vitro scratch wound healing assays." PLOS ONE 15(7): e0232565) . […]

Entries after “also recorded” stand apart in the source; their conditions may differ.

Consider three compounds from patent publication EP4596570A1, “SRC INHIBITORS AND USES THEREOF” (Universitat de Barcelona, priority 2024, dated 2025).

Consider `COC(=O)N[C@@H](CO)C(=O)N[C@@H](CC(C)C)C(=O)N[C@@H](CCC(=O)O)C(=O)N1CCC[C@H]1c1cn(-c2ccc(-c3ccc(-n4cc([C@@H]5CCCN5C(=O)[C@H](CCC(=O)O)NC(=O)[C@H](CC(C)C)NC(=O)[C@H](CO)NC(=O)OC)nn4)cc3)cc2)nn1` [SLE-Me, Moc-Ser-Leu-Glu-1-Glu-Leu-Ser-Moc], for which the cell viability result in series [1] is “do not significantly affect cell viability”.
Regarding `COC(=O)NC(C(=O)N1CCC[C@H]1c1cn(-c2ccc(-c3ccc(-n4cc([C@@H]5CCCN5C(=O)C(NC(=O)OC)C(C)C)nn4)cc3)cc2)nn1)C(C)C` (stereo partly drawn) [V-Me, Moc-Val-1-Val-Moc], the colony formation entry in series [2] is listed as “significantly reduced; also recorded: significantly decrease”. Further, the “migration of cancer cells (scratch wound healing)” value in series [3] was “significantly reduced; also recorded: significantly impair”. Moreover, in series [1], the cell viability entry is recorded as “do not significantly affect cell viability”.
In the case of Moc-Leu-Lys-1-Lys-Leu-Moc [LK-Me], in series [2], the colony formation entry is reported as “does not show significant biological activity; also recorded: no effect”. The “migration of cancer cells (scratch wound healing)” value in series [3] is “does not show significant biological activity; also recorded: no effect”.
